Test results taken from the supplement of paper PMC10627819.

Key:
S. pneumoniae D39V [1] = experiment: fitness (endpoint OD595 vs no drug) (fraction); higher = more growth
Summary of the method: (§1)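 Fitness compares growth at the stationary-phase transition with the robust mean of no-drug control wells, as a ratio of optical densities. The ratio is capped at 1. Wells of 384-well plates held 30 µl, or 55 µl for S. pneumoniae, inoculated at OD595 0.01. Readings at OD595 every 30 min for 14 h at 37 °C were corrected against the first reading.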

B. subtilis 168 [2] = experiment: as above
Summary of the method: as §1

S. aureus Newman [3] = experiment: as above
Summary of the method: as §1

S. pneumoniae D39V [4] = experiment: Bliss interaction score (quartile over a dose matrix) (fitness difference); higher = more antagonism (negative = synergy)
Summary of the method: (§2)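 Fitness was OD595 at entry into stationary phase divided by the plate's robust no-drug mean and capped at 1; single-drug fitness was inferred from combination data. The Bliss score is observed minus expected (product) fitness, summarised by quartiles over technical, biological and donor/recipient replicates.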

S. aureus DSM 20231 = experiment: as above
Summary of the method: as §2

B. subtilis 168 [5] = experiment: as above
Summary of the method: as §2

S. aureus Newman [6] = experiment: as above
Summary of the method: as §2
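Throughout, for Bliss interaction score (quartile over a dose matrix): first quartile when negative (synergy) and third quartile when positive (antagonism).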

`O=C(O)c1cn(C2CC2)c2cc(N3CCNCC3)c(F)cc2c1=O` [Ciprofloxacin] + CCC[C@@H]1C[C@@H](C(=O)N[C@@H]([C@H]2O[C@H](SC)[C@H](O)[C@@H](O)[C@H]2O)[C@H](C)Cl)N(C)C1 [Clindamycin] gave a fitness (S. pneumoniae D39V [1]; first compound 0.125 µg/mL, partner 0.0125 µg/mL) of 0.763, a fitness (S. pneumoniae D39V [1]; first compound 0.125 µg/mL, partner 0.015 µg/mL) of 0.8 and a fitness (S. pneumoniae D39V [1]; first compound 0.125 µg/mL, partner 0.025 µg/mL) of 0.531. It also gave a fitness (S. pneumoniae D39V [1]; first compound 0.125 µg/mL, partner 0.03 µg/mL) of 0.54, a fitness (S. pneumoniae D39V [1]; first compound 0.125 µg/mL, partner 0.05 µg/mL) of 0.2 and a fitness (S. pneumoniae D39V [1]; first compound 0.125 µg/mL, partner 0.06 µg/mL) of 0.325. For the same compound, the fitness (S. pneumoniae D39V [1]; first compound 0.25 µg/mL, partner 0.0125 µg/mL) was 0.733, the fitness (S. pneumoniae D39V [1]; first compound 0.25 µg/mL, partner 0.015 µg/mL, one replicate) was 0.708 and the fitness (S. pneumoniae D39V [1]; first compound 0.25 µg/mL, partner 0.025 µg/mL) was 0.494. The fitness (S. pneumoniae D39V [1]; first compound 0.25 µg/mL, partner 0.03 µg/mL, one replicate) was 0.454, the fitness (S. pneumoniae D39V [1]; first compound 0.25 µg/mL, partner 0.05 µg/mL) was 0.168 and the fitness (S. pneumoniae D39V [1]; first compound 0.25 µg/mL, partner 0.06 µg/mL, one replicate) was 0.259. It also gave a fitness (S. pneumoniae D39V [1]; first compound 0.5 µg/mL, partner 0.0125 µg/mL) of 0.636, a fitness (S. pneumoniae D39V [1]; first compound 0.5 µg/mL, partner 0.015 µg/mL) of 0.564 and a fitness (S. pneumoniae D39V [1]; first compound 0.5 µg/mL, partner 0.025 µg/mL) of 0.434. For the same compound, the fitness (S. pneumoniae D39V [1]; first compound 0.5 µg/mL, partner 0.03 µg/mL) was 0.431, the fitness (S. pneumoniae D39V [1]; first compound 0.5 µg/mL, partner 0.05 µg/mL) was 0.158 and the fitness (S. pneumoniae D39V [1]; first compound 0.5 µg/mL, partner 0.06 µg/mL) was 0.294. For the same compound, the fitness (B. subtilis 168 [2]; first compound 0.0098 µg/mL, partner 0.0039 µg/mL, one replicate) was ≥ 1, the fitness (B. subtilis 168 [2]; first compound 0.0098 µg/mL, partner 0.0078 µg/mL, one replicate) was 0.403 and the fitness (B. subtilis 168 [2]; first compound 0.0098 µg/mL, partner 0.0156 µg/mL, one replicate) was 0.818. For the same compound, the fitness (B. subtilis 168 [2]; first compound 0.0098 µg/mL, partner 0.0625 µg/mL) was 0.508, the fitness (B. subtilis 168 [2]; first compound 0.0098 µg/mL, partner 0.125 µg/mL) was 0.394 and the fitness (B. subtilis 168 [2]; first compound 0.0098 µg/mL, partner 0.25 µg/mL) was 0.373. The fitness (B. subtilis 168 [2]; first compound 0.0195 µg/mL, partner 0.0039 µg/mL, one replicate) was 0.903, the fitness (B. subtilis 168 [2]; first compound 0.0195 µg/mL, partner 0.0078 µg/mL, one replicate) was 0.394 and the fitness (B. subtilis 168 [2]; first compound 0.0195 µg/mL, partner 0.0156 µg/mL, one replicate) was 0.742. It also gave a fitness (B. subtilis 168 [2]; first compound 0.0195 µg/mL, partner 0.0625 µg/mL) of 0.416, a fitness (B. subtilis 168 [2]; first compound 0.0195 µg/mL, partner 0.125 µg/mL) of 0.337 and a fitness (B. subtilis 168 [2]; first compound 0.0195 µg/mL, partner 0.25 µg/mL) of 0.312. For the same compound, the fitness (B. subtilis 168 [2]; first compound 0.039 µg/mL, partner 0.0039 µg/mL, one replicate) was 0.627, the fitness (B. subtilis 168 [2]; first compound 0.039 µg/mL, partner 0.0078 µg/mL, one replicate) was 0.326 and the fitness (B. subtilis 168 [2]; first compound 0.039 µg/mL, partner 0.0156 µg/mL, one replicate) was 0.557. For the same compound, the fitness (B. subtilis 168 [2]; first compound 0.039 µg/mL, partner 0.0625 µg/mL) was 0.39, the fitness (B. subtilis 168 [2]; first compound 0.039 µg/mL, partner 0.125 µg/mL) was 0.311 and the fitness (B. subtilis 168 [2]; first compound 0.039 µg/mL, partner 0.25 µg/mL) was 0.303. The fitness (S. aureus Newman [3]; first compound 0.0375 µg/mL, partner 0.0312 µg/mL) was 0.545, the fitness (S. aureus Newman [3]; first compound 0.0375 µg/mL, partner 0.0625 µg/mL) was 0.425 and the fitness (S. aureus Newman [3]; first compound 0.0375 µg/mL, partner 0.125 µg/mL) was 0.11. It also gave a fitness (S. aureus Newman [3]; first compound 0.075 µg/mL, partner 0.0312 µg/mL) of 0.604, a fitness (S. aureus Newman [3]; first compound 0.075 µg/mL, partner 0.0625 µg/mL) of 0.475 and a fitness (S. aureus Newman [3]; first compound 0.075 µg/mL, partner 0.125 µg/mL) of 0.153. The fitness (S. aureus Newman [3]; first compound 0.15 µg/mL, partner 0.0312 µg/mL) was 0.335, the fitness (S. aureus Newman [3]; first compound 0.15 µg/mL, partner 0.0625 µg/mL) was 0.292 and the fitness (S. aureus Newman [3]; first compound 0.15 µg/mL, partner 0.125 µg/mL) was 0.104. For the same compound, the Bliss interaction score (S. pneumoniae D39V [4]) was 0.061, the Bliss interaction score (S. aureus DSM 20231) was 0.0603 and the Bliss interaction score (B. subtilis 168 [5]) was 0.226. The Bliss interaction score (S. aureus Newman [6]) was 0.157.
